Results: US9244081B2, “Cell-based fluorescent assays for identifying alpha and delta ENaC modulators” (Senomyx, Inc., priority 2006, dated 2016)

How the values were obtained:
[1] = molecular target: T1, alphaENaC channel (human alpha, beta and gamma subunits) (Homo sapiens, UniProt P37088+P51168+P51170); assay: FLIPR membrane potential dye assay, dye loaded in absence of sodium (Protocol 1), alphaENaC-transfected HEK293 cells; format: cell-based
T1 construct: expressed in transfected cells; host or cells: HEK293, transient transfection
T1 sequence (P37088 1-669): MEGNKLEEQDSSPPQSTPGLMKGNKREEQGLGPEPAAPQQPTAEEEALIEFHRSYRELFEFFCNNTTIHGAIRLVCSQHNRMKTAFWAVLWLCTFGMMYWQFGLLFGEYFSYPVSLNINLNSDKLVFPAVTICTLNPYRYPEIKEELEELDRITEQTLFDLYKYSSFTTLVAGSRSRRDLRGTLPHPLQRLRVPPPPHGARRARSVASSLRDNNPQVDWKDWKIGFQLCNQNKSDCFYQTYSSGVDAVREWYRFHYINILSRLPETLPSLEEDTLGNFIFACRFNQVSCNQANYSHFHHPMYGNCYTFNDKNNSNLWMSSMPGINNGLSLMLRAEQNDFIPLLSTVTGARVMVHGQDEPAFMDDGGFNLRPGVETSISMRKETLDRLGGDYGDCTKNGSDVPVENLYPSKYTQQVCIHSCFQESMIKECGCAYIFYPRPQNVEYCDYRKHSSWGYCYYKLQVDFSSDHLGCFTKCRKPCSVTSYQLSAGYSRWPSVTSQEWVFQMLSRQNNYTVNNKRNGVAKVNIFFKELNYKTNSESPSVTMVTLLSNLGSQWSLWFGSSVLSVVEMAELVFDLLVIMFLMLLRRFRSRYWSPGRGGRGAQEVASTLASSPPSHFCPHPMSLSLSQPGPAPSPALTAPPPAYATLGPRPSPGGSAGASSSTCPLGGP
T1 sequence (P51168 1-640): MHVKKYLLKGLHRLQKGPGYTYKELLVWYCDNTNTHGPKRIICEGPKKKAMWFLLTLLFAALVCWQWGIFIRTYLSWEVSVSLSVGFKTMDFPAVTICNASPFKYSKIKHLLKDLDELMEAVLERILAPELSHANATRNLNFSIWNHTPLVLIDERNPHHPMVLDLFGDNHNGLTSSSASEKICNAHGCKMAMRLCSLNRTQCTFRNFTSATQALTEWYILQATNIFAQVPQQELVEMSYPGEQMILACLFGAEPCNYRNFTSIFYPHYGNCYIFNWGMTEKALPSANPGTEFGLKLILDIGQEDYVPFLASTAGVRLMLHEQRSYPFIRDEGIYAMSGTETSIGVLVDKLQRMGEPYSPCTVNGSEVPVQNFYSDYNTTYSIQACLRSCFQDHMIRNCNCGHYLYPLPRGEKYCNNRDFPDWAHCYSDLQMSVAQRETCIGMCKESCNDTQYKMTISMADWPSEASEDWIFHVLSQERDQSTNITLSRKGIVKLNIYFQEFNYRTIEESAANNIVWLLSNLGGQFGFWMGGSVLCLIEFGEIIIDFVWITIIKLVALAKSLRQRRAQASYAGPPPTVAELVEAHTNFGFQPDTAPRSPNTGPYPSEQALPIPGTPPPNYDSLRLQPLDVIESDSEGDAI
T1 sequence (P51170 1-649): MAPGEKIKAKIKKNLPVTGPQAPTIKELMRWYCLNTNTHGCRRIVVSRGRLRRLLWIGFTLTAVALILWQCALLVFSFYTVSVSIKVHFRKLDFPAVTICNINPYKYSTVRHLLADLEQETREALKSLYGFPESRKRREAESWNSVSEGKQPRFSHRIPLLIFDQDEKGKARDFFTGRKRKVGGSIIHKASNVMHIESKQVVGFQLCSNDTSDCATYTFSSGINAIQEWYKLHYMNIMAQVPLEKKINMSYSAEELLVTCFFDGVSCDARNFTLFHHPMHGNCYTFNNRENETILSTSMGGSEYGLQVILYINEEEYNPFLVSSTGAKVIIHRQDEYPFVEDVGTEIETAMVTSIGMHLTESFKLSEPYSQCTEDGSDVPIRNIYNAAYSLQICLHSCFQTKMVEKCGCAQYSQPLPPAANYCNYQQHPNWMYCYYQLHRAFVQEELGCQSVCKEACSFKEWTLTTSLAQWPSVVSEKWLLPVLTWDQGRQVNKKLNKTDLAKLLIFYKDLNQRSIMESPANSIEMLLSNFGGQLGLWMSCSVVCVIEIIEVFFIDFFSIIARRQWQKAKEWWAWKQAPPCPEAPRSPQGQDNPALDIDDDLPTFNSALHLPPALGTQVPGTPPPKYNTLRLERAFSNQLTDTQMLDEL
Source text: (§1) In this experiment HEK293 cells which were transfected with sequences encoding the human alpha, beta and gamma subunits were used to screen for the effect of amiloride on NaCl induced changes in membrane potential. […] These HEK293 cells were transiently transfected with plasmids containing the alpha, beta and gamma ENaC encoding nucleic acid sequences and then loaded with a membrane potential dye (FMP; Molecular Devices) in the absence of sodium (NaCl was replaced with NMDG) at room temperature for one hour. Cells were then stimulated with 70 mM NaCl with (red trace) or without (white trace) 6.25 micromolar amiloride. Changes in membrane potential (fluorescent signal) in HEK293 cells were monitored on a FLIPR system (Molecular Devices). […] HEK293 cells were transiently transfected with the gamma, beta, and delta subunit containing plasmids and were loaded with a membrane potential dye (FMP; Molecular Devices) in the absence of sodium (NaCl was replaced with NMDG) at room temperature for one hour. Cells were then stimulated with 70 mM NaCl with (red trace) or without (white trace) 50 micromolar amiloride. Changes in membrane potential (fluorescent signal) were monitored on a FLIPR system (Molecular Devices). […] Therein cells were prepared and treated as in Panels A and B. Increasing concentrations of amiloride were used to assess potency at inhibiting the different forms of ENaC.
This example relates to the fluorescent experiments contained in FIG. 2, Panels A, B and C. In the experiment in Panel A it can be seen that the enhancer S559 increases the NaCl-induced change in membrane potential in HEK293 cells expressing the alphaENaC channel. […] Changes in membrane potential (fluorescent signal) were monitored on a FLIPR system (Molecular Devices). […] Changes in membrane potential (Fluorescent signal) were monitored on a FLIPR system (Molecular Devices).

[2] = molecular target: T2, deltaENaC channel (gamma, beta, and delta subunit) (Homo sapiens, UniProt P51168+P51170+P51172); assay: FLIPR membrane potential dye assay, dye loaded in absence of sodium (Protocol 1), deltaENaC-transfected HEK293 cells; format: cell-based; conditions: 50 micromolar amiloride; 70 mM NaCl stimulus; dye loaded without sodium (NMDG)
T2 construct: expressed in transfected cells; host or cells: HEK293, transient transfection
T2 sequence (P51172 1-638 isoform P51172-1): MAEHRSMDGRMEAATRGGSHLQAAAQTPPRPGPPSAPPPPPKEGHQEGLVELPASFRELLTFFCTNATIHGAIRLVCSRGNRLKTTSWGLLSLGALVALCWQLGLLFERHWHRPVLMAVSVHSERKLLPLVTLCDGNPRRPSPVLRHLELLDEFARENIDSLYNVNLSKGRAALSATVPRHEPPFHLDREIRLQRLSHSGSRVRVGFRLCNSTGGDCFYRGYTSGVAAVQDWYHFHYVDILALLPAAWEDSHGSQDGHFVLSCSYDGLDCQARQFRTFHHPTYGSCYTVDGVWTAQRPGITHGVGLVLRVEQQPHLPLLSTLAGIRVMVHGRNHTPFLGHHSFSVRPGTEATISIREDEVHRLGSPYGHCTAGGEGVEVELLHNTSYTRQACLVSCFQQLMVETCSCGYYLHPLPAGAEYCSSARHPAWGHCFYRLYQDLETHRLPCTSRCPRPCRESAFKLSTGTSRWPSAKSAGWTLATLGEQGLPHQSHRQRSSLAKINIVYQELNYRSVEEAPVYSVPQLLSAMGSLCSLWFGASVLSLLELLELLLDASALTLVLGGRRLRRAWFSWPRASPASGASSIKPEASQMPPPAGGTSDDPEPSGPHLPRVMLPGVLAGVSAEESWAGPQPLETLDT
T2 sequence (P51168 1-640): T1 sequence (P51168 1-640)
T2 sequence (P51170 1-649): T1 sequence (P51170 1-649)
Source text: as §1

[3] = molecular target: T3, alphaENaC channel (alpha, beta and gamma ENaC subunits) (Homo sapiens, UniProt P37088+P51168+P51170); assay: FLIPR membrane potential dye assay, dye loaded in 140 mM NaCl (Protocol 2), alphaENaC-transfected HEK293 cells; format: cell-based; conditions: 3 micromolar amiloride
T3 construct: expressed in transfected cells; host or cells: HEK293, transient transfection
T3 sequence (P37088 1-669): T1 sequence (P37088 1-669)
T3 sequence (P51168 1-640): T1 sequence (P51168 1-640)
T3 sequence (P51170 1-649): T1 sequence (P51170 1-649)
Source text: This example relates to the fluorescent experiments contained in FIG. 2, Panels A, B and C. In the experiment in Panel A it can be seen that the enhancer S559 increases the NaCl-induced change in membrane potential in HEK293 cells expressing the alphaENaC channel. HEK293 cells were transiently transfected with plasmids containing sequences encoding the human alpha, beta, and gamma ENaC subunits and were loaded with a membrane potential dye (FMP; Molecular Devices) in the absence of sodium (NaCl was replaced with NMDG) at room temperature for one hour. Cells were then stimulated with 17.5 mM NaCl with (red trace) and without (white trace) 15 micromolar S559. Changes in membrane potential (fluorescent signal) were monitored on a FLIPR system (Molecular Devices). […] Changes in membrane potential (Fluorescent signal) were monitored on a FLIPR system (Molecular Devices).
In the experiment HEK293 cells again transfected transiently with plasmids containing the alpha, beta, and gamma ENaC subunit nucleic acid sequences and were treated as described in Example 2., Panel B (Protocol 2). Changes in membrane potential (fluorescent signal) were monitored on a FLIPR system (Molecular Devices). […] Changes in membrane potential (fluorescent signal) were monitored on a FLIPR system (Molecular Devices). […]

HEK293 cells = assay: FLIPR membrane potential control in mock-transfected or un-transfected HEK293 cells (Protocol 2); format: cell-based; conditions: HEK293 transfected with mock plasmid (pUC19)
Procedure: In the experiment HEK293 cells again transfected transiently with plasmids containing the alpha, beta, and gamma ENaC subunit nucleic acid sequences and were treated as described in Example 2., Panel B (Protocol 2). Changes in membrane potential (fluorescent signal) were monitored on a FLIPR system (Molecular Devices). […] HEK293 cells were transfected with a mock plasmid (pUC19) and treated as described above. Changes in membrane potential (fluorescent signal) were monitored on a FLIPR system (Molecular Devices).
HEK293 cells transiently transfected with plasmids containing nucleic acid sequences encoding the human delta, beta and gamma ENaC subunits and were treated as described in FIG. 2; Panel B (Protocol 2).

[4] = test system: perceived human salt intensity; assay: Human salty taste intensity test; format: in vivo; conditions: 300-fold (amiloride) and 3000-fold (benzamil) above IC50 for alpha beta gamma ENaC in oocytes
Source text: Unlike other mammals, amiloride only slightly reduces the intensity of sodium chloride taste, i.e., by about 15-20% when used at concentrations that specifically modulate ENaC function. […] Thus, additional non-ENaC genes are likely involved in human taste and other biological functions.

[5] = test system: perceived human salt intensity; conditions: concentrations that specifically modulate ENaC function; cited from earlier work

N=C(N)NC(=O)c1nc(Cl)c(N)nc1N [amiloride]
inhibition of NaCl induced changes in membrane potential ([1]; 6.25 micromolar amiloride, 70 mM NaCl stimulus, dye loaded without sodium (NMDG)): totally inhibited | apparent affinity on α-ENaC transfected cells relative to δ-ENaC transfected cells ([1]; dye loaded in absence of sodium, sodium add back): at least 10 fold | potency at inhibiting alphaENaC versus deltaENaC ([1]; increasing concentrations of amiloride, cells treated as in Panels A and B): more potent at inhibiting alphaENaC than deltaENaC | inhibition of NaCl induced change in membrane potential [2]: totally inhibited | block of S559 enhancer effects [3]: almost totally abolishes | effect on membrane potential in cells that do not express alphaENaC (HEK293 cells): do not exhibit any effect | effect on perceived human salt intensity [4]: did not elicit a significant effect | reduction of intensity of sodium chloride taste [5]: 15-20%

NC(=Nc1ccccc1)NC(=O)c1nc(Cl)c(N)nc1N [phenamil]
effect on perceived human salt intensity [4]: did not elicit a significant effect
